Measurements published in patent US20230077362A1 (CORTEVA AGRISCIENCE LLC, priority 2019, published 2023).

Tests used:
[1] = tested on: Beet Armyworm (Spodoptera exigua) ("BAW"), second instar larvae; assay: Bioassay on beet armyworm (BAW), 128-well diet tray assay; format: in vivo; details: Spodoptera exigua, read-out: BAW (Biological Results, rating)
How it was run: (§1)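 Second-instar larvae on diet in 128-well trays, covered and held at 25° C, 14:10 light-dark, for five to seven days. Percent mortality scored per well and averaged over eight wells; activity reported as a rating category.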

[2] = tested on: Cabbage Looper (Trichoplusia ni) ("CL"), second instar larvae; assay: Bioassay on cabbage looper (CL), 128-well diet tray assay; format: in vivo; details: Trichoplusia ni, read-out: CL (Biological Results, rating)
How it was run: as §1

Row | Structure (SMILES) | pest or weed control at 50 µg/cm2 [1] | pest or weed control at 50 µg/cm2 [2]
1 | Cc1cc(-c2ncn(-c3ccc(OC(F)(F)F)cc3)n2)ccc1NC(=O)/N=C1\SCC(=O)N1c1cc(N(C)C)ccc1OCCC(F)(F)F [Compound J102, (Z)-1-(3-(5-(Dimethylamino)-2-(3,3,3-trifluoropropoxy)phenyl)-4-oxothiazolidin-2-ylidene)-3-(2-methyl-4-(1-(4-(trifluoromethoxy)phenyl)-1H-1,2,4-triazol-3-yl)phenyl)urea] | 50 to 100% | 50 to 100%
2 | CCNc1ccc(C(C)C)c(N2C(=O)CS/C2=N\C(=O)Nc2ccc(-c3ncn(-c4ccc(OC(F)(F)F)cc4)n3)cc2F)c1 [Compound J106, (Z)-1-(3-(5-(Ethylamino)-2-isopropylphenyl)-4-oxothiazolidin-2-ylidene)-3-(2-fluoro-4-(1-(4-(trifluoromethoxy)phenyl)-1H-1,2,4-triazol-3-yl)phenyl)urea] | 50 to 100% | 50 to 100%
3 | CCCNc1ccc(C(C)C)c(N2C(=O)CS/C2=N\C(=O)Nc2ccc(-c3ncn(-c4ccc(OC(F)(F)F)cc4)n3)cc2F)c1 [Compound J107, (Z)-1-(2-Fluoro-4-(1-(4-(trifluoromethoxy)phenyl)-1H-1,2,4-triazol-3-yl)phenyl)-3-(3-(2-isopropyl-5-(propylamino)phenyl)-4-oxothiazolidin-2-ylidene)urea] | 50 to 100% | 50 to 100%
4 | CCCN(CCC)c1ccc(C(C)C)c(N2C(=O)CS/C2=N\C(=O)Nc2ccc(-c3ncn(-c4ccc(OC(F)(F)F)cc4)n3)cc2F)c1 [Compound J108, (Z)-1-(3-(5-(Dipropylamino)-2-isopropylphenyl)-4-oxothiazolidin-2-ylidene)-3-(2-fluoro-4-(1-(4-(trifluoromethoxy)phenyl)-1H-1,2,4-triazol-3-yl)phenyl)urea] | 50 to 100% | 50 to 100%
5 | COc1cc(-c2ncn(-c3ccc(OC(F)(F)F)cc3)n2)ccc1NC(=O)/N=C1\SCC(=O)N1c1cc(N(C)C)ccc1OCCC(F)(F)F [Compound J109, (Z)-1-(3-(5-(Dimethylamino)-2-(3,3,3-trifluoropropoxy)phenyl)-4-oxothiazolidin-2-ylidene)-3-(2-methoxy-4-(1-(4-(trifluoromethoxy)phenyl)-1H-1,2,4-triazol-3-yl)phenyl)urea] | 50 to 100% | 50 to 100%
6 | CCc1cc(-c2ncn(-c3ccc(OC(F)(F)F)cc3)n2)ccc1NC(=O)/N=C1\SCC(=O)N1c1cc(N(C)C)ccc1OCCC(F)(F)F [Compound J110, (Z)-1-(3-(5-(Dimethylamino)-2-(3,3,3-trifluoropropoxy)phenyl)-4-oxothiazolidin-2-ylidene)-3-(2-ethyl-4-(1-(4-(trifluoromethoxy)phenyl)-1H-1,2,4-triazol-3-yl)phenyl)urea] | 50 to 100% | 50 to 100%
7 | CC(C)c1cc(-c2ncn(-c3ccc(OC(F)(F)F)cc3)n2)ccc1NC(=O)/N=C1\SCC(=O)N1c1cc(N(C)C)ccc1OCCC(F)(F)F [Compound J111, (Z)-1-(3-(5-(Dimethylamino)-2-(3,3,3-trifluoropropoxy)phenyl)-4-oxothiazolidin-2-ylidene)-3-(2-isopropyl-4-(1-(4-(trifluoromethoxy)phenyl)-1H-1,2,4-triazol-3-yl)phenyl)urea] | 50 to 100% | 50 to 100%
8 | CC(C)c1cc(N(C)C)ccc1N1C(=O)CS/C1=N\C(=O)Nc1ccc(-c2ncn(-c3ccc(OC(F)(F)F)cc3)n2)cc1F [Compound J112, (Z)-1-(3-(4-(Dimethylamino)-2-isopropylphenyl)-4-oxothiazolidin-2-ylidene)-3-(2-fluoro-4-(1-(4-(trifluoromethoxy)phenyl)-1H-1,2,4-triazol-3-yl)phenyl)urea] | 50 to 100% | 50 to 100%
9 | Cc1ccc(C(C)C)c(N2C(=O)CS/C2=N\C(=O)Nc2ccc(-c3ncn(-c4ccc(OC(F)(F)F)cc4)n3)cc2C(F)(F)F)c1 [Compound J114, (Z)-1-(3-(2-Isopropyl-5-methylphenyl)-4-oxothiazolidin-2-ylidene)-3-(4-(1-(4-(trifluoromethoxy)phenyl)-1H-1,2,4-triazol-3-yl)-2-(trifluoromethyl)phenyl)urea] | 50 to 100% | 50 to 100%
10 | Cc1ccc(OCC(F)(F)F)c(N2C(=O)CS/C2=N\C(=O)Nc2ccc(-c3ncn(-c4ccc(OC(F)(F)F)cc4)n3)cc2C(F)(F)F)c1 [Compound J115, (Z)-1-(3-(5-Methyl-2-(2,2,2-trifluoroethoxy)phenyl)-4-oxothiazolidin-2-ylidene)-3-(4-(1-(4-(trifluoromethoxy)phenyl)-1H-1,2,4-triazol-3-yl)-2-(trifluoromethyl)phenyl)urea] | 50 to 100% | 50 to 100%
11 | COC(C)c1ccc(C)cc1N1C(=O)CS/C1=N\C(=O)Nc1ccc(-c2ncn(-c3ccc(OC(F)(F)F)cc3)n2)cc1C(F)(F)F (stereo not drawn) [Compound J117, (Z)-1-(3-(2-(1-Methoxyethyl)-5-methylphenyl)-4-oxothiazolidin-2-ylidene)-3-(4-(1-(4-(trifluoromethoxy)phenyl)-1H-1,2,4-triazol-3-yl)-2-(trifluoromethyl)phenyl)urea] | 50 to 100% | 50 to 100%
12 | CN(C)c1ccc(OCCC(F)(F)F)c(N2C(=O)CS/C2=N\C(=O)Nc2ccc(-c3ncn(-c4ccc(OC(F)(F)F)cc4)n3)cc2C(F)(F)F)c1 [Compound J118, (Z)-1-(3-(5-(Dimethylamino)-2-(3,3,3-trifluoropropoxy)phenyl)-4-oxothiazolidin-2-ylidene)-3-(4-(1-(4-(trifluoromethoxy)phenyl)-1H-1,2,4-triazol-3-yl)-2-(trifluoromethyl)phenyl)urea] | 50 to 100% | 50 to 100%
13 | Cc1ccc(OCC(F)(F)F)c(N2C(=O)CS/C2=N\C(=O)Nc2ccc(-c3ncn(-c4cccc(OC(F)(F)F)c4)n3)cc2F)c1 [Compound J121, (Z)-1-(2-Fluoro-4-(1-(3-(trifluoromethoxy)phenyl)-1H-1,2,4-triazol-3-yl)phenyl)-3-(3-(5-methyl-2-(2,2,2-trifluoroethoxy)phenyl)-4-oxothiazolidin-2-ylidene)urea] | 0 to 50% | 50 to 100%
14 | CCOC(C)c1ccc(C)cc1N1C(=O)CS/C1=N\C(=O)Nc1ccc(-c2ncn(-c3ccc(OC(F)(F)F)cc3)n2)cc1F (stereo not drawn) [Compound J124, (Z)-1-(3-(2-(1-Ethoxyethyl)-5-methylphenyl)-4-oxothiazolidin-2-ylidene)-3-(2-fluoro-4-(1-(4-(trifluoromethoxy)phenyl)-1H-1,2,4-triazol-3-yl)phenyl)urea] | 50 to 100% | 50 to 100%
15 | CCCOc1ccc(C)cc1N1C(=O)CS/C1=N\C(=O)Nc1ccc(-c2ncn(-c3ccc(OC(F)(F)F)cc3)n2)cc1F [Compound J125, (Z)-1-(2-Fluoro-4-(1-(4-(trifluoromethoxy)phenyl)-1H-1,2,4-triazol-3-yl)phenyl)-3-(3-(5-methyl-2-propoxyphenyl)-4-oxothiazolidin-2-ylidene)urea] | 50 to 100% | 50 to 100%
